According to the NIST ThermoML archive (doi:10.1021/je800636k):
± gives the expanded uncertainty stated by the source.

Assay: xn = mol fraction of the nth substance listed
Conditions: 101 kPa, Liquid; for electrical conductivity: Qcond 2400 VWR international / cell constant, 1.05; for viscosity: Concentric cylinders viscometry; for mass density: Vibrating tube method

CCCCn1cc[n+](C)c1C.[N-]=[N+]=[N-] [1-butyl-2,3-dimethylimidazolium azide] + CCCCn1cc[n+](C)c1C.F[B-](F)(F)F
Conditions | electrical conductivity [S/m] | mass density [kg/m3] | viscosity [mPa·s]
303.15 K, x1 = 0.25 | 0.0809 ± 0.0032 | – | –
303.15 K, x1 = 0.5 | 0.0608 ± 0.0024 | – | –
303.15 K, x1 = 0.75 | 0.0604 ± 0.0024 | – | –
303.15 K, x1 = 1 | 0.0488 ± 0.0019 | – | –
308.15 K, x1 = 0.25 | 0.114 ± 0.0046 | – | –
308.15 K, x1 = 0.5 | 0.0887 ± 0.0036 | – | –
308.15 K, x1 = 0.75 | 0.0881 ± 0.0035 | – | –
308.15 K, x1 = 1 | 0.0756 ± 0.003 | – | –
313.15 K, x1 = 0.25 | 0.156 ± 0.0062 | 1154.97 ± 2.6 | 210.46 ± 5.5
313.15 K, x1 = 0.5 | 0.125 ± 0.005 | 1129.46 ± 2.5 | 292.06 ± 8.3
313.15 K, x1 = 0.75 | 0.124 ± 0.005 | 1098.68 ± 2.3 | 353.89 ± 11
313.15 K, x1 = 1 | 0.112 ± 0.0045 | 1070.46 ± 2.2 | 338.19 ± 10
318.15 K, x1 = 0.25 | 0.208 ± 0.0083 | – | –
318.15 K, x1 = 0.5 | 0.172 ± 0.0069 | – | –
318.15 K, x1 = 0.75 | 0.171 ± 0.0068 | – | –
318.15 K, x1 = 1 | 0.159 ± 0.0064 | – | –
323.15 K, x1 = 0.25 | 0.271 ± 0.011 | 1148.74 ± 2.5 | 115.24 ± 2.4
323.15 K, x1 = 0.5 | 0.23 ± 0.0092 | 1123.48 ± 2.4 | 156.81 ± 3.6
323.15 K, x1 = 0.75 | 0.228 ± 0.0091 | 1092.32 ± 2.3 | 183.02 ± 4.4
323.15 K, x1 = 1 | 0.219 ± 0.0088 | 1065.14 ± 2.2 | 176.04 ± 4.2
328.15 K, x1 = 0.25 | 0.345 ± 0.014 | – | –
328.15 K, x1 = 0.5 | 0.302 ± 0.012 | – | –
328.15 K, x1 = 0.75 | 0.299 ± 0.012 | – | –
328.15 K, x1 = 1 | 0.294 ± 0.012 | – | –
333.15 K, x1 = 0.25 | 0.433 ± 0.017 | 1142.5 ± 2.5 | 68.72 ± 1.2
333.15 K, x1 = 0.5 | 0.388 ± 0.015 | 1117.5 ± 2.4 | 92.5 ± 1.8
333.15 K, x1 = 0.75 | 0.383 ± 0.015 | 1085.96 ± 2.3 | 105.08 ± 2.1
333.15 K, x1 = 1 | 0.383 ± 0.015 | 1059.83 ± 2.2 | 101.63 ± 2
338.15 K, x1 = 0.25 | 0.535 ± 0.021 | – | –
338.15 K, x1 = 0.5 | 0.489 ± 0.02 | – | –
338.15 K, x1 = 0.75 | 0.483 ± 0.019 | – | –
338.15 K, x1 = 1 | 0.49 ± 0.02 | – | –
343.15 K, x1 = 0.25 | 0.651 ± 0.026 | 1136.27 ± 2.5 | 43.88 ± 0.76
343.15 K, x1 = 0.5 | 0.608 ± 0.024 | 1111.52 ± 2.4 | 58.77 ± 1
343.15 K, x1 = 0.75 | 0.599 ± 0.024 | 1079.6 ± 2.3 | 65.45 ± 1.1
343.15 K, x1 = 1 | 0.614 ± 0.025 | 1054.52 ± 2.2 | 63.6 ± 1.1
348.15 K, x1 = 0.25 | 0.783 ± 0.031 | – | –
348.15 K, x1 = 0.5 | 0.744 ± 0.03 | – | –
348.15 K, x1 = 0.75 | 0.733 ± 0.029 | – | –
348.15 K, x1 = 1 | 0.756 ± 0.03 | – | –
353.15 K, x1 = 0.25 | 0.929 ± 0.037 | 1130.03 ± 2.5 | 29.62 ± 0.51
353.15 K, x1 = 0.5 | 0.899 ± 0.036 | 1105.54 ± 2.4 | 39.64 ± 0.68
353.15 K, x1 = 0.75 | 0.885 ± 0.035 | 1073.24 ± 2.2 | 43.5 ± 0.75
353.15 K, x1 = 1 | 0.918 ± 0.037 | 1049.21 ± 2.1 | 42.44 ± 0.73
358.15 K, x1 = 0.25 | 1.09 ± 0.044 | – | –
358.15 K, x1 = 0.5 | 1.07 ± 0.043 | – | –
358.15 K, x1 = 0.75 | 1.06 ± 0.042 | – | –
358.15 K, x1 = 1 | 1.1 ± 0.044 | – | –
363.15 K, x1 = 0.25 | 1.27 ± 0.051 | 1123.8 ± 2.4 | 20.94 ± 0.36
363.15 K, x1 = 0.5 | 1.27 ± 0.051 | 1099.56 ± 2.3 | 28.06 ± 0.48
363.15 K, x1 = 0.75 | 1.25 ± 0.05 | 1066.87 ± 2.2 | 30.46 ± 0.52
363.15 K, x1 = 1 | 1.3 ± 0.052 | 1043.9 ± 2.1 | 29.82 ± 0.51
368.15 K, x1 = 0.25 | 1.47 ± 0.059 | – | –
368.15 K, x1 = 0.5 | 1.49 ± 0.059 | – | –
368.15 K, x1 = 0.75 | 1.46 ± 0.058 | – | –
368.15 K, x1 = 1 | 1.52 ± 0.061 | – | –
373.15 K, x1 = 0.25 | – | 1117.56 ± 2.4 | 15.38 ± 0.26
373.15 K, x1 = 0.5 | – | 1093.58 ± 2.3 | 20.68 ± 0.36
373.15 K, x1 = 0.75 | – | 1060.51 ± 2.2 | 22.27 ± 0.38
373.15 K, x1 = 1 | – | 1038.59 ± 2.1 | 21.87 ± 0.38
